Results reported in paper PMC4467398, “Preclinical antitumor activity of ST7612AA1: a new oral thiol-based histone deacetylase (HDAC) inhibitor” (Oncotarget, 2014).

Test system: DOHH2 and TMD8 DLBCL cells
Experiment: Gene Set Enrichment Analysis (GSEA) of gene expression profiles, ST7612AA1 300 nM 8 hrs
Assay type: cell-based, human
[1] = C2.CP.CGP, down-regulated genes
[2] = C2.CP.KEGG, down-regulated genes
[3] = C2.CP.REACTOME, down-regulated genes
[4] = GSEA.C2.CP.BIOCARTA, up-regulated genes
[5] = GSEA.C2.CP.CGP, up-regulated genes
[6] = GSEA.C2.CP.KEGG, up-regulated genes
[7] = GSEA.C2.CP.REACTOME, up-regulated genes

## CC(=O)SCCCCC[C@H](NC(=O)[C@H]1CCC(=O)N1)C(=O)Nc1ccccc1 [ST7612AA1]
[1]
  NES GARY_CD5_TARGETS_DN: -2.075
  NES HELLER_HDAC_TARGETS_DN: -2.119
  NES MANALO_HYPOXIA_DN: -2.295
  NES PEART_HDAC_PROLIFERATION_CLUSTER_DN: -2.218
  NES PENG_GLUTAMINE_DEPRIVATION_DN: -2.059
  NES SCHLOSSER_MYC_TARGETS_AND_SERUM_RESPONSE_DN: -2.302
  NES SCHLOSSER_MYC_TARGETS_AND_SERUM_RESPONSE_UP: -2.093
  NES SCHLOSSER_MYC_TARGETS_REPRESSED_BY_SERUM: -2.287
  NES SCHUHMACHER_MYC_TARGETS_UP: -2.188
  NES ZHONG_RESPONSE_TO_AZACITIDINE_AND_TSA_DN: -2.061
[2]
  NES KEGG_AMINOACYL_TRNA_BIOSYNTHESIS: -2
  NES KEGG_BASE_EXCISION_REPAIR: -1.385
  NES KEGG_CELL_CYCLE: -1.433
  NES KEGG_N_GLYCAN_BIOSYNTHESIS: -1.4288
  NES KEGG_ONE_CARBON_POOL_BY_FOLATE: -1.545
  NES KEGG_PROTEASOME: -1.717
  NES KEGG_PYRIMIDINE_METABOLISM: -1.58
  NES KEGG_RENIN_ANGIOTENSIN_SYSTEM: -1.474
  NES KEGG_RNA_DEGRADATION: -1.656
  NES KEGG_SPLICEOSOME: -1.947
[3]
  NES REACTOME_ASSEMBLY_OF_THE_PRE_REPLICATIVE_COMPLEX: -1.875
  NES REACTOME_DEADENYLATION_DEPENDENT_MRNA_DECAY: -1.915
  NES REACTOME_METABOLISM_OF_NON_CODING_RNA: -2.068
  NES REACTOME_METABOLISM_OF_RNA: -1.941
  NES REACTOME_MITOCHONDRIAL_PROTEIN_IMPORT: -1.944
  NES REACTOME_MRNA_PROCESSING: -1.945
  NES REACTOME_MRNA_SPLICING: -2.002
  NES REACTOME_PROCESSING_OF_CAPPED_INTRON_CONTAINING_PRE_MRNA: -2.059
  NES REACTOME_REGULATION_OF_MITOTIC_CELL_CYCLE: -1.812
  NES REACTOME_TRNA_AMINOACYLATION: -1.958
[4]
  NES BIOCARTA_ARAP_PATHWAY: 1.7296
  NES BIOCARTA_CCR5_PATHWAY: 1.628
  NES BIOCARTA_COMP_PATHWAY: 1.713
[5]
  NES BERTUCCI_MEDULLARY_VS_DUCTAL_BREAST_CANCER_DN: 2.239
  NES CHEN_LVAD_SUPPORT_OF_FAILING_HEART_UP: 2.236
  NES DUTERTRE_ESTRADIOL_RESPONSE_24HR_DN: 2.118
  NES GALINDO_IMMUNE_RESPONSE_TO_ENTEROTOXIN: 2.132
  NES GAUSSMANN_MLL_AF4_FUSION_TARGETS_E_UP: 2.11
  NES HELLER_HDAC_TARGETS_SILENCED_BY_METHYLATION_UP: 2.6813
  NES HELLER_HDAC_TARGETS_UP: 2.622
  NES KINSEY_TARGETS_OF_EWSR1_FLII_FUSION_DN: 2.138
  NES PEART_HDAC_PROLIFERATION_CLUSTER_UP: 2.166
  NES ZHONG_RESPONSE_TO_AZACITIDINE_AND_TSA_UP: 2.29
[6]
  NES KEGG_ASTHMA: 1.8598
  NES KEGG_AXON_GUIDANCE: 1.813
  NES KEGG_CELL_ADHESION_MOLECULES_CAMS: 1.93
  NES KEGG_ENDOCYTOSIS: 1.748
  NES KEGG_EPITHELIAL_CELL_SIGNALING_IN_HELICOBACTER_PYLORI_INFECTION: 1.747
  NES KEGG_FOCAL_ADHESION: 1.8042
  NES KEGG_LEUKOCYTE_TRANSENDOTHELIAL_MIGRATION: 1.726
  NES KEGG_LYSOSOME: 1.886
  NES KEGG_SYSTEMIC_LUPUS_ERYTHEMATOSUS: 2.269
  NES KEGG_VIBRIO_CHOLERAE_INFECTION: 1.733
[7]
  NES REACTOME_AMYLOIDS: 2.248
  NES REACTOME_CELL_CELL_JUNCTION_ORGANIZATION: 1.864
  NES REACTOME_DEPOSITION_OF_NEW_CENPA_CONTAINING_NUCLEOSOMES_AT_THE_CENTROMERE: 1.861
  NES REACTOME_MEIOSIS: 1.9137
  NES REACTOME_MEIOTIC_RECOMBINATION: 2.082
